Reference: patent US10092564B2, “Use of masitinib for treatment of an amyotrophic lateral sclerosis patient subpopulation” (AB SCIENCE, priority 2016, dated 2018)

Columns and labels:
[1] = system: patients suffering from amyotrophic lateral sclerosis (ALS); assay: Study AB10015: randomized, double-blind, placebo-controlled phase 2/3 study of masitinib in combination with riluzole versus placebo in combination with riluzole (interim and final analysis); type: in vivo, human; conditions: for Δ ALSFRS-R = (least squares means) change from baseline to week 48 in ALSFRS-R score: mITT; for Delta [CI] = absolute difference between subpopulations in Δ ALSFRS-R: in points
Description: There are two distinct populations of ALS patients: a subpopulation of “normal progressors” and a subpopulation of “faster progressors”. The targeted population for primary analysis is the subpopulation of “normal progressors”. “Normal progressors” are defined as ALS patients whose progression of ALSFRS-R score before randomization is less than 1.1 point per month. This population should represent about 80% of ALS patients. The population of “normal progressors+faster progressors” comprises all ALS patients, “normal progressor” ALS patients or “faster progressor” ALS patients. “Faster progressors” are defined as ALS patients whose progression of ALSFRS-R score before randomization is greater than or equal to 1.1 points per month. Main Inclusion Criteria: • Female or male patient aged between 18 and 75 years of age, with a weight >50 kg and body mass index between 18 and 35 kg/m^2; • Familial or sporadic ALS; • Patient diagnosed with laboratory supported, clinically probable or definite ALS according to the World Federation of Neurology Revised El Escorial criteria [Brooks B R. […] For the morning dose, tablets were taken during breakfast. In case of nausea, the administration took place during lunch. For the evening dose, tablets were taken during dinner. Modified Intent-To-Treat (mITT) dataset—The mITT population will include all ITT patients with probable or definite amyotrophic lateral sclerosis who took at least one dose of study treatment (masitinib or placebo). Change from baseline to week 48 in the revised Amyotrophic Lateral Sclerosis Functional Rating Scale (ALSFRS-R) In accordance with study AB10015 protocol, an interim analysis was planned to be performed after around 50% of the information became available for analysis. At the time of the interim analysis, 192 (50%) out of a planned 381 patients who had been randomized before the 12 Feb. 2015 could have reached the week 48 visit. […] The interim analysis primary endpoint is based on the change from baseline to week 48 in ALSFRS-R. Primary analysis was performed in the mITT “normal progressor” (i.e. non-aggressive or moderately aggressive ALS) subpopulation. […] Missing values of ALSFRS-R at study visit were replaced based on the Modified Last Observation Carried Forward (mLOCF) method. Absolute change from baseline to week 48 in ALSFRS-R was estimated using a model of analysis of covariance (ANCOVA) adjusted on following factors: treatment (masitinib or placebo), and stratification criteria of: ALS patient subpopulation, progression of ALSFRS-R score (point/month) from date of first symptom to baseline, ALSFRS-R score at baseline, site of onset (bulbar versus others), age at baseline; and geographical region. Two-sided (1-alpha) confidence interval of the difference of mean change from baseline to week 48 between groups was calculated. The primary analysis used a re-randomization test. The re-randomization test, also referred to as a randomization test or permutation test, is a type of statistical significance test in which the distribution of the test statistic under the null hypothesis is obtained by calculating all possible values of the test statistic under rearrangements of the labels on the observed data points. The proportion of replicates for which the p-value of treatment factor is at least as small as the p-value of treatment factor from the original data was calculated. In this proportion the observed p-value of treatment factor is also accounted for as one replicate in numerator and denominator. This proportion is the p-value for the randomization test. […] To control overall family-wise type I error rate at the study level, analyses of efficacy was conducted in a stepwise manner (fixed sequence method). Fixed sequence method ensures that the population claimed and treated with a selected dosage will be done by controlling the global family-wise error rate at the 0.0311 level for the primary analysis. […]

people with ALS = conditions: cited from earlier work

Structure (SMILES): Cc1ccc(NC(=O)c2ccc(CN3CCN(C)CC3)cc2)cc1Nc1nc(-c2cccnc2)cs1 [Masitinib (4.5), 4-(4-methylpiperazin-1-ylmethyl)-N-[4-methyl-3-(4-pyridin-3ylthiazol-2-ylamino)phenyl]benzamide]
- Δ ALSFRS-R = (least squares means) change from baseline to week 48 in ALSFRS-R score ([1]; final AB10015, faster progressor subgroup (≥1.1 pts/m), masitinib 4.5 mg/kg/day plus riluzole, comparison with placebo arm): −17.9268
- Δ ALSFRS-R = (least squares means) change from baseline to week 48 in ALSFRS-R score ([1]; final AB10015, masitinib 4.5 mg/kg/day treated faster progressors (≥1.1 pts/m), comparison moderately aggressive vs faster progressors): −25.0567
- Δ ALSFRS-R = (least squares means) change from baseline to week 48 in ALSFRS-R score ([1]; final AB10015, masitinib 4.5 mg/kg/day treated faster progressors (≥1.1 pts/m), comparison non-aggressive vs faster progressors): −18.2920
- Δ ALSFRS-R = (least squares means) change from baseline to week 48 in ALSFRS-R score ([1]; final AB10015, masitinib 4.5 mg/kg/day treated moderately aggressive (≥0.8 to <1.1 pts/m), comparison moderately aggressive vs faster progressors): −15.7258
- Δ ALSFRS-R = (least squares means) change from baseline to week 48 in ALSFRS-R score ([1]; final AB10015, masitinib 4.5 mg/kg/day treated moderately aggressive plus aggressive (≥0.8 pts/m), comparison with non-aggressive): −15.9080
- Δ ALSFRS-R = (least squares means) change from baseline to week 48 in ALSFRS-R score ([1]; final AB10015, masitinib 4.5 mg/kg/day treated non-aggressive (<0.8 pts/m), comparison non-aggressive vs faster progressors): −7.4509
- Δ ALSFRS-R = (least squares means) change from baseline to week 48 in ALSFRS-R score ([1]; final AB10015, masitinib 4.5 mg/kg/day treated non-aggressive (<0.8 pts/m), comparison non-aggressive vs moderately aggressive plus aggressive): −7.8085
- Delta [CI] = absolute difference between subpopulations in Δ ALSFRS-R ([1]; final AB10015, masitinib 4.5 mg/kg/day treated patients, moderately aggressive (≥0.8 to <1.1 pts/m) vs faster progressors (≥1.1 pts/m), week 48, CI [−19.4226, 0.761], P=0.0687): −9.3308[−19.4226;
- Delta [CI] = absolute difference between subpopulations in Δ ALSFRS-R ([1]; final AB10015, masitinib 4.5 mg/kg/day treated patients, non-aggressive (<0.8 pts/m) vs moderately aggressive plus aggressive (≥0.8 pts/m), week 48, CI [−12.3719, −3.8271], P=0.0003): −8.0995[−12.3719;
- Δ ALSFRS-R = (least squares means) change from baseline to week 48 in ALSFRS-R score ([1]; final AB10015, non-aggressive subgroup (<0.8 pts/m), masitinib 4.5 mg/kg/day plus riluzole, comparison with placebo arm): −8.2552
- Δ ALSFRS-R = (least squares means) change from baseline to week 48 in ALSFRS-R score ([1]; final AB10015, normal progressor subgroup (<1.1 pts/m), masitinib 4.5 mg/kg/day plus riluzole, comparison with placebo arm): −8.7045
- Δ ALSFRS-R = (least squares means) change from baseline to week 48 in ALSFRS-R score ([1]; final AB10015, overall study population (normal progressor and faster progressor), masitinib 4.5 mg/kg/day plus riluzole, comparison with placebo arm): −10.7019
- conclusion on treatment effectiveness ([1]; final analysis, ALS patients with progression of ALSFRS-R score prior to treatment initiation of less than 1.1 points per month): effective treatment
- Δ ALSFRS-R = (least squares means) change from baseline to week 48 in ALSFRS-R score ([1]; final analysis, masitinib 4.5 mg/kg/day treated faster progressors (>1.1 pts/m), comparison normal vs faster progressors): −19.5855
- Δ ALSFRS-R = (least squares means) change from baseline to week 48 in ALSFRS-R score ([1]; final analysis, masitinib 4.5 mg/kg/day treated normal progressors (<1.1 pts/m), comparison normal vs faster progressors): −8.3939
- Δ ALSFRS-R = (least squares means) change from baseline to week 48 in ALSFRS-R score ([1]; final analysis, moderately aggressive subgroup (≥0.8 to <1.1 pts/m), masitinib 4.5 mg/kg/day plus riluzole, comparison with placebo arm): −11.0031
- conclusion on treatment effectiveness ([1]; final analysis, progression of ALSFRS-R score of at least 1.1 points per month (aggressive ALS)): ineffective treatment
- conclusion on treatment effectiveness ([1]; final analysis, progression of ALSFRS-R score of less than 0.8 points per month (non-aggressive ALS)): most effective
- conclusion on treatment effectiveness ([1]; final analysis, progression of ALSFRS-R score of ≥0.8 to <1.1 points per month (moderately aggressive ALS), to a lesser extent than non-aggressive): effective
- difference between treatment-arms (masitinib versus placebo) in ALSFRS-R change from baseline to week 48 ([1]; final, faster progressors subpopulation (≥1.1 points per month), 4.5 mg/kg/day): No significant difference
- average decrease in ALSFRS-R score ([1]; final, masitinib 4.5 mg/kg/day treated faster progressors, week 48): 19.6 points
- average decrease in ALSFRS-R score ([1]; final, masitinib 4.5 mg/kg/day treated normal progressors, week 48): 8.4 points
- difference in decrease of ALSFRS-R score between normal progressors and faster progressors ([1]; final, masitinib 4.5 mg/kg/day treated patients, week 48, P<0.001): 11.2 points
- treatment effect in terms of ALSFRS-R score of moderately aggressive ALS patients over aggressive ALS patients ([1]; final, masitinib treated, ≥0.8 to <1.1 vs ≥1.1 points per month): strong trend in treatment effect
- retardation in ALSFRS-R score, difference masitinib versus placebo ([1]; final, moderately aggressive ALS patients (≥0.8 to <1.1 points per month), 4.5 mg/kg/day, week 48): 2.2 points
- change in ALSFRS-R score ([1]; final, moderately aggressive ALS patients (≥0.8 to <1.1 points per month), masitinib 4.5 mg/kg/day, week 48, placebo −13.2): −11 points
- retardation in ALSFRS-R score, difference masitinib versus placebo ([1]; final, non-aggressive ALS patients (<0.8 points per month), 4.5 mg/kg/day, week 48): 3.4 points
- change in ALSFRS-R score ([1]; final, non-aggressive ALS patients (<0.8 points per month), masitinib 4.5 mg/kg/day, week 48, placebo −11.7): −8.3 points
- difference in ALSFRS-R score between masitinib and placebo ([1]; final, normal progressors (<1.1 points per month), 4.5 mg/kg/day, week 48): 3.4 points
- average decrease in ALSFRS-R score ([1]; final, normal progressors (<1.1 points per month), masitinib 4.5 mg/kg/day, week 48, placebo −12.1, P=0.0142): 8.7 points
- difference between treatment-arms (masitinib versus placebo) in ALSFRS-R change from baseline to week 48 ([1]; final, overall study population (normal progressor and faster progressor patients), 4.5 mg/kg/day, P=0.11): no significant difference
- Δ ALSFRS-R = (least squares means) change from baseline to week 48 in ALSFRS-R score ([1]; interim AB10015, faster progressor subgroup (≥1.1 points/month), masitinib 4.5 mg/kg/day plus riluzole, comparison with placebo arm): −20.77
- Δ ALSFRS-R = (least squares means) change from baseline to week 48 in ALSFRS-R score ([1]; interim AB10015, masitinib 4.5 mg/kg/day treated faster progressors (≥1.1 points/month), subpopulation comparison normal vs faster): −17.90
- Δ ALSFRS-R = (least squares means) change from baseline to week 48 in ALSFRS-R score ([1]; interim AB10015, masitinib 4.5 mg/kg/day treated normal progressors (<1.1 points/month), subpopulation comparison normal vs faster): −5.57
- Δ ALSFRS-R = (least squares means) change from baseline to week 48 in ALSFRS-R score ([1]; interim AB10015, normal progressor subgroup (<1.1 points/month), masitinib 4.5 mg/kg/day plus riluzole, comparison with placebo arm): −9.02
- difference between treatment-arms (masitinib versus placebo) in ALSFRS-R change from baseline to week 48 ([1]; interim, faster progressor subpopulation, 4.5 mg/kg/day): No significant difference
- average decrease in ALSFRS-R score ([1]; interim, masitinib 4.5 mg/kg/day treated faster progressor (aggressive ALS) patients, week 48): 17.9 points
- average decrease in ALSFRS-R score ([1]; interim, masitinib 4.5 mg/kg/day treated normal progressor (non-aggressive or moderately aggressive ALS) patients, week 48): 5.57 points
- average decrease in ALSFRS-R score ([1]; interim, normal progressors, masitinib 4.5 mg/kg/day, baseline to week 48, placebo 14.51, P=0.0032): 9.02 points

Structure (SMILES): Nc1nc2ccc(OC(F)(F)F)cc2s1 [riluzole, 6-(trifluoromethoxy)benzothiazol-2-amine]
- effect on patient function (people with ALS; any of the randomized trials considered separately): no beneficial effect
- effect on bulbar and limb function (people with ALS; data of the trials combined, not on muscle strength, to be interpreted with caution): small beneficial effect
- safety of the drug (people with ALS; riluzole 100 mg, meta-analysis): not a major concern
